Source: ChEMBL document CHEMBL5154654, “Design, synthesis and biological evaluation of 7-((7H-pyrrolo[2,3-d]pyrimidin-4-yl)oxy)-2,3-dihydro-1H-inden-1-one derivatives as potent FAK inhibitors for the treatment of ovarian cancer” (Eur J Med Chem, 2022)
Values after ≈ are worked out from the molar mass of the structure shown. One block for each molecule: values may come before it. Active and inactive are the calls of the source. No cut-off for these calls is given here.

Tests used:
Focal adhesion kinase 1 [1] = biological target: T1, Focal adhesion kinase 1 (Homo sapiens, UniProt Q05397); assay: Inhibition of FAK (unknown origin) using Fluorescein-Poly GAT as substrate incubated for 30 mins and measured after 60 mins by Lanthascreen assay
Target sequence in this assay (Q05397 whole entry): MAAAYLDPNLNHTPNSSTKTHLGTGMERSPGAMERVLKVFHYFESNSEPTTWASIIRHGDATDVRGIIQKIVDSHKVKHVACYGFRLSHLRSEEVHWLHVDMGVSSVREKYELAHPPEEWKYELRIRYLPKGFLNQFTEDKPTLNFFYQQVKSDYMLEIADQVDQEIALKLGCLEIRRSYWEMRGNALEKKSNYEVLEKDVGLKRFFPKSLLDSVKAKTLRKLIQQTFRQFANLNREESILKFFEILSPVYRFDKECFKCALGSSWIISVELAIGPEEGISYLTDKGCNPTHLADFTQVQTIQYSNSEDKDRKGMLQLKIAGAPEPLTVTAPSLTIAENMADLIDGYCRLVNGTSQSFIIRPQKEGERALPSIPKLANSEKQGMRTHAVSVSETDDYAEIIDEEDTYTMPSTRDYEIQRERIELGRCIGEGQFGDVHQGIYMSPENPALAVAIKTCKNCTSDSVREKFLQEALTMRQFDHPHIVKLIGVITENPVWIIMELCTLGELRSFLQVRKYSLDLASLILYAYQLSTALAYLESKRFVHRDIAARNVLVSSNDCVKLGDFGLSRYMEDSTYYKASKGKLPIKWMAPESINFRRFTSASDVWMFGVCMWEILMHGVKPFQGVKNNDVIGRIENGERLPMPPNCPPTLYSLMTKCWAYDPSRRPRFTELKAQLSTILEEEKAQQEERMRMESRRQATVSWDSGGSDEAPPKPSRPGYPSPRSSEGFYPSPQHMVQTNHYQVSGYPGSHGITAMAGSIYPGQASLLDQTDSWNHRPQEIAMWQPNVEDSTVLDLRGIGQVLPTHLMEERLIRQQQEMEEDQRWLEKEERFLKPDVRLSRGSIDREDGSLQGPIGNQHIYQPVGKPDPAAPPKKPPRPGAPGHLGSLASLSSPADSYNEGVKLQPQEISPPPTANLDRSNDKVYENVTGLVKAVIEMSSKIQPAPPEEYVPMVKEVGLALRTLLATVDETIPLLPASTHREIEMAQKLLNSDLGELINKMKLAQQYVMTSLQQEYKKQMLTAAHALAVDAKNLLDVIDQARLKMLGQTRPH

[2] = Metabolic stability in human liver microsomes assessed as parent compound remaining incubated for 120 mins in presence of NADPH by LC-MS/MS analysis; assay type: ADME, Microsome; settings: read-out: Stability
[3] = Metabolic stability in human liver microsomes assessed as half-life incubated for 120 mins in presence of NADPH by LC-MS/MS analysis; assay type: ADME, Microsome
[4] = Metabolic stability in human liver microsomes assessed as intrinsic clearance incubated for 120 mins in presence of NADPH by LC-MS/MS analysis; assay type: ADME, Microsome; settings: read-out: CLH
[5] = Aqueous solubility of compound; assay type: physicochemical; settings: aqueous (not further specified)
[6] = biological target: Leucine-rich repeat serine/threonine-protein kinase 2 (Homo sapiens) (UniProt Q5S007); assay: Inhibition of LRRK2 (unknown origin) at 1 uM incubated for 40 mins in presence of Mg/ATP mix relative to control
[7] = biological target: Dual specificity protein kinase CLK4 (Homo sapiens) (UniProt Q9HAZ1); assay: Inhibition of CLK4 (unknown origin) at 1 uM incubated for 40 mins in presence of Mg/ATP mix relative to control
Dual specificity protein kinase CLK4 (Homo sapiens), sequence (Q9HAZ1 whole entry, looked up): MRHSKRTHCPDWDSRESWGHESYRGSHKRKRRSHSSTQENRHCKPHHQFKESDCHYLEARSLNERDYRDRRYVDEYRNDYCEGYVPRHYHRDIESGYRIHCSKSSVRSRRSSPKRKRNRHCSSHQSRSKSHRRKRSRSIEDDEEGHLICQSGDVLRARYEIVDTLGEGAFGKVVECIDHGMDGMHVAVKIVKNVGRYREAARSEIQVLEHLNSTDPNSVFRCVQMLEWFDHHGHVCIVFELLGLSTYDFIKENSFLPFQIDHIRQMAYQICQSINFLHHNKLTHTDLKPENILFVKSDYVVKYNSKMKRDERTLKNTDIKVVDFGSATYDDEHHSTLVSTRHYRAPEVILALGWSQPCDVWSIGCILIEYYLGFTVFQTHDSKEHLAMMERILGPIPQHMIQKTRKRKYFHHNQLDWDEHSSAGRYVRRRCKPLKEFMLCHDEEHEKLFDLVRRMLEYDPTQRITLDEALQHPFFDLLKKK

[8] = biological target: Tyrosine-protein kinase Fes/Fps (Homo sapiens) (UniProt P07332); assay: Inhibition of Fes (unknown origin) at 1 uM incubated for 40 mins in presence of Mg/ATP mix relative to control
Tyrosine-protein kinase Fes/Fps (Homo sapiens), sequence (P07332 whole entry): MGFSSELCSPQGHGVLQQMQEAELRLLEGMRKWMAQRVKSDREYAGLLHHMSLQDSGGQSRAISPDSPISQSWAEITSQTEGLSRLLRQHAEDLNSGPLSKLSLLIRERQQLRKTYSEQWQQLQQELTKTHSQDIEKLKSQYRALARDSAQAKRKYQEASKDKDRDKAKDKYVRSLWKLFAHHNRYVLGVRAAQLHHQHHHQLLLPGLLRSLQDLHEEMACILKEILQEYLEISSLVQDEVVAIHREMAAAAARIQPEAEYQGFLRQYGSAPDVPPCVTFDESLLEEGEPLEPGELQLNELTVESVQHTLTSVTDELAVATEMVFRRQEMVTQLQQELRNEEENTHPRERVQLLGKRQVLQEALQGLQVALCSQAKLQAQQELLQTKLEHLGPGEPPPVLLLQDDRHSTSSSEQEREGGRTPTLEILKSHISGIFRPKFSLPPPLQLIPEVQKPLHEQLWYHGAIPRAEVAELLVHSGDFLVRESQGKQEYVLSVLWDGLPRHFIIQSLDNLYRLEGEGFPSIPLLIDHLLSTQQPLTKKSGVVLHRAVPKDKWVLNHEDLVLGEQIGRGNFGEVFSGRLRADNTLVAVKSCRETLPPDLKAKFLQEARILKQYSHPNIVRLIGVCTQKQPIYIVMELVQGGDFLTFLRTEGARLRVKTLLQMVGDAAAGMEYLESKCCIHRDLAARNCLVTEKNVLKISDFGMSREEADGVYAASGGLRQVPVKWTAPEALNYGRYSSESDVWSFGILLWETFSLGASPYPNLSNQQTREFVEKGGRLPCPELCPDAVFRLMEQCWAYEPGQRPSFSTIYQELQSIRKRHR

[9] = biological target: Dual specificity protein kinase CLK1 (Homo sapiens) (UniProt P49759); assay: Inhibition of CLK1 (unknown origin) at 1 uM incubated for 40 mins in presence of Mg/ATP mix relative to control
Dual specificity protein kinase CLK1 (Homo sapiens), sequence (P49759 whole entry, looked up): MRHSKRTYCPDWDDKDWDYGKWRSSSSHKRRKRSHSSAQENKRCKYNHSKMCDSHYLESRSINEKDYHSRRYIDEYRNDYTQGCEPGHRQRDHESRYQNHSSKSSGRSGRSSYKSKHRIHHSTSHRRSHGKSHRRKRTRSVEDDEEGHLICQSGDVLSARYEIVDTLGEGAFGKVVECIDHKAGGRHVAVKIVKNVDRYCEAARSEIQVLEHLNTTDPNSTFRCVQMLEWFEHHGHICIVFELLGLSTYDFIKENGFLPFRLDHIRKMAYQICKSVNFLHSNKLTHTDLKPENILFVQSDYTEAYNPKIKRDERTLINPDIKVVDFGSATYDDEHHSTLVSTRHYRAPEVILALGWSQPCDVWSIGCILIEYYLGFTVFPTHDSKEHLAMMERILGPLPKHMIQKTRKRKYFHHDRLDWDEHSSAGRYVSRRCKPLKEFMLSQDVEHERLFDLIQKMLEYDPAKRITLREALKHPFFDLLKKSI

[10] = biological target: Serine/threonine-protein kinase 33 (Homo sapiens) (UniProt Q9BYT3); assay: Inhibition of STK33 (unknown origin) at 1 uM incubated for 40 mins in presence of Mg/ATP mix relative to control
Serine/threonine-protein kinase 33 (Homo sapiens), sequence (Q9BYT3 whole entry, looked up): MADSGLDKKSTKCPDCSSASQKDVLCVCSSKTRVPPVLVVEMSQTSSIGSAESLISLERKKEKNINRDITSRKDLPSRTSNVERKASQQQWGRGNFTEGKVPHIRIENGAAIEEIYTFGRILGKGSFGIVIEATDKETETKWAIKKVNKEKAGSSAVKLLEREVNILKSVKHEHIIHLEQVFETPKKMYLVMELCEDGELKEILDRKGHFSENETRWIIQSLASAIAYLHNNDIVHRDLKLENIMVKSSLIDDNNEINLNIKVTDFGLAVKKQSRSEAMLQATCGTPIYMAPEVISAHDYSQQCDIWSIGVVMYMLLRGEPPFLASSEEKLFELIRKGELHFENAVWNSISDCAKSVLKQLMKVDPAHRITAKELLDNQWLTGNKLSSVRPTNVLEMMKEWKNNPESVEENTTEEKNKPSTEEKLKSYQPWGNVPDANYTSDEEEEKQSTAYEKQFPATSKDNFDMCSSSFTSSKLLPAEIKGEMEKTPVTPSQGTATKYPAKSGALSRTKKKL

[11] = biological target: ALK tyrosine kinase receptor (Homo sapiens) (UniProt Q9UM73); assay: Inhibition of ALK (unknown origin) at 1 uM incubated for 40 mins in presence of Mg/ATP mix relative to control
PA-1 [12] = assay: Inhibition of migration of human PA-1 cells at 2 uM measured after 24 hrs by Transwell assay; assay type: functional, cell-based
PA-1 [13] = assay: Inhibition of invasion of human PA-1 cells at 2 uM measured after 24 hrs by Transwell assay; assay type: functional, cell-based
PA-1 [14] = assay: Down-regulation of MMP-2 expression in human PA-1 cells at 2 uM measured after 0.5 to 6 hrs; assay type: functional, cell-based; settings: time 0.5-6 hrs
PA-1 [15] = assay: Down-regulation of MMP-9 expression in human PA-1 cells at 2 uM measured after 0.5 to 6 hrs; assay type: functional, cell-based; settings: time 0.5-6 hrs
[16] = Half-life in Sprague-Dawley rat at 20 mg/kg, po; assay type: ADME, organism-based; settings: in vivo
[17] = Tmax in Sprague-Dawley rat at 20 mg/kg, po; assay type: ADME, organism-based; settings: in vivo
[18] = Cmax in Sprague-Dawley rat at 20 mg/kg, po; assay type: ADME, organism-based; design: dose 20 mg/kg, route po; settings: in vivo
[19] = AUClast in Sprague-Dawley rat at 20 mg/kg, po; assay type: ADME, organism-based; design: time 0 - last, dose 20 mg/kg, route po; settings: in vivo
[20] = AUC (total) in Sprague-Dawley rat at 20 mg/kg, po; assay type: ADME, organism-based; design: dose 20 mg/kg, route po; settings: in vivo
PA-1 [21] = assay: Antitumor activity against human PA-1 cells xenografted in female BALB/c nude mouse assessed tumor growth inhibition at 60 mg/kg, po administered once daily for 21 days; assay type: functional; settings: PA-1, 504 h, time 21 day, read-out: TGI
[22] = Toxicity in female BALB/c nude mouse xenografted with human PA-1 cells assessed as effect on body weight at 60 mg/kg, po administered once daily for 21 days; assay type: organism-based; settings: in vivo, 504 h, time 21 day
[23] = Toxicity in female BALB/c nude mouse xenografted with human PA-1 cells assessed as heart damage at 60 mg/kg, po administered once daily for 21 days; assay type: organism-based; settings: in vivo, 504 h, time 21 day
[24] = Toxicity in female BALB/c nude mouse xenografted with human PA-1 cells assessed as liver damage at 60 mg/kg, po administered once daily for 21 days; assay type: organism-based; settings: in vivo, 504 h, time 21 day
[25] = Toxicity in female BALB/c nude mouse xenografted with human PA-1 cells assessed as lung damage at 60 mg/kg, po administered once daily for 21 days; assay type: organism-based; settings: in vivo, 504 h, time 21 day
[26] = Toxicity in female BALB/c nude mouse xenografted with human PA-1 cells assessed as spleen damage at 60 mg/kg, po administered once daily for 21 days; assay type: organism-based; settings: in vivo, 504 h, time 21 day
[27] = Toxicity in female BALB/c nude mouse xenografted with human PA-1 cells assessed as kidney damage at 60 mg/kg, po administered once daily for 21 days; assay type: organism-based; settings: in vivo, 504 h, time 21 day
ES-2 = assay: Antimetastatic activity against human ES2 cells xenografted in mouse assessed as decrease in the number of peritoneal nodules at 60 mg/kg, po administered daily for 12 days; assay type: functional, organism-based; settings: time 12.0 day
Focal adhesion kinase 1 [28] = biological target: T1, Focal adhesion kinase 1; settings: PA-1, dose 10.0 nM
Target sequence in this assay (Q05397 2-1052 limits assumed): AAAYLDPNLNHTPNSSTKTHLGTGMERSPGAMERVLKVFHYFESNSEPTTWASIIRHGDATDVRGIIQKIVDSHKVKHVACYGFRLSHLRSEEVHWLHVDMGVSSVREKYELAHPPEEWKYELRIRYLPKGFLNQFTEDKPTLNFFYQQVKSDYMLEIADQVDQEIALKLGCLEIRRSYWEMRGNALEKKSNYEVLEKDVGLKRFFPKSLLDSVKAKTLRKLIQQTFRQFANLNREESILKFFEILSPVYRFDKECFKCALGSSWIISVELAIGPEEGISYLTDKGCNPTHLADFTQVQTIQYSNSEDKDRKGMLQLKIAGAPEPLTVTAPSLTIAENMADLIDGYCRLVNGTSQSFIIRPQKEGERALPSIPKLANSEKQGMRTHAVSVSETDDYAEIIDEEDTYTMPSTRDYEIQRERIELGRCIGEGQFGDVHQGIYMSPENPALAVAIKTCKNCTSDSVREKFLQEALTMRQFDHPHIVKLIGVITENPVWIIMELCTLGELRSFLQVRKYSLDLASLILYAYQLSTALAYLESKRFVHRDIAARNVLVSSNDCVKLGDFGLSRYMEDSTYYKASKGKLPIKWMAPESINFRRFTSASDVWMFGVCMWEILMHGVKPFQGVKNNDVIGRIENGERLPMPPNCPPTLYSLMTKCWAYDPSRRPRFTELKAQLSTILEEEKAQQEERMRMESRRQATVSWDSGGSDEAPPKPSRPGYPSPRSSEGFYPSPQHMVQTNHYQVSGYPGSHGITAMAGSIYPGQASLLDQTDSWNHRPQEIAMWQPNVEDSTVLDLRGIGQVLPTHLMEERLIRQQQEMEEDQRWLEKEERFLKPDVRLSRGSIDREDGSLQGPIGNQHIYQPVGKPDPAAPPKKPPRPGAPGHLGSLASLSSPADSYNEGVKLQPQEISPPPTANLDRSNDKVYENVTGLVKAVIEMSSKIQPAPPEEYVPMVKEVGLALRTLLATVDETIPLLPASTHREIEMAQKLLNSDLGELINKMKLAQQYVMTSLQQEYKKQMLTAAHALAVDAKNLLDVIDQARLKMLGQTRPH
Description: Inhibition of FAK in human PA-1 cells assessed as suppression of FAK autophosphorylation at 10 nM and measured by Western blotting analysis

- IC50 (Focal adhesion kinase 1 [1]): 5.64 nM
SMILES: CN1CCN(c2ccc(Nc3nc(Oc4cccc5c4C(=O)CC5)c4cc[nH]c4n3)cc2F)CC1

- IC50 (Focal adhesion kinase 1 [1]): 99.8 nM
SMILES: CN1CCN(c2ccc(Nc3nc(Oc4cccc5c4C(=O)CC5)c4cc[nH]c4n3)c(C(F)(F)F)c2)CC1

- IC50 (Focal adhesion kinase 1 [1]): 11.9 nM
SMILES: COc1cc(N2C[C@@H](C)O[C@@H](C)C2)ccc1Nc1nc(Oc2cccc3c2C(=O)CC3)c2cc[nH]c2n1

- IC50 (Focal adhesion kinase 1 [1]): 20.6 nM
SMILES: CN1CCN(c2ccc(Nc3nc(Oc4cccc5c4C(=O)CC5)c4cc[nH]c4n3)cc2C#N)CC1

- IC50 (Focal adhesion kinase 1 [1]): 1.89 nM
- remaining at 2 h [2]: 48.6%
- half-life [3]: 1.88 h
- CLint scaled [4]: 7.7 mL/min/kg
- solubility [5]: 456 µg/mL (≈ 890 µM)
- inhibition [6]: 100%
- inhibition [7]: 97%
- inhibition [8]: 96%
- inhibition [9]: 92%
- inhibition [10]: 92%
- inhibition [11]: 87%
- half-life [16]: 4.08 h
- Tmax [17]: 0.28 h
- Cmax [18]: 21.7 ng/mL
- AUC(0-t) [19]: 59.6 ng·h/mL
- AUC [20]: 78.8 ng·h/mL
- inhibition (Focal adhesion kinase 1 [28]): Active
SMILES: COc1cc(C(=O)NC2CCNCC2)ccc1Nc1nc(Oc2cccc3c2C(=O)CC3)c2cc[nH]c2n1
- inhibition (PA-1 [12]): Active
- inhibition (PA-1 [13]): Active
- Activity (PA-1 [14]): Active
- Activity (PA-1 [15]): Active
- inhibition in vivo at 60 mg/kg (PA-1 [21]): 72.5%
- Activity [22]: Non-Toxic
- Activity [23]: Non-Toxic
- Activity [24]: Non-Toxic
- Activity [25]: Non-Toxic
- Activity [26]: Non-Toxic
- Activity [27]: Non-Toxic
- Activity (ES-2): Active

- IC50 (Focal adhesion kinase 1 [1]): 9.6 nM
SMILES: COc1cc(N2C[C@@H]3C[C@H]2CO3)ccc1Nc1nc(Oc2cccc3c2C(=O)CC3)c2cc[nH]c2n1

- IC50 (Focal adhesion kinase 1 [1]): 3.86 nM
- remaining at 2 h [2]: 62.7%
- half-life [3]: > 2 h
- CLint scaled [4]: 52 mL/min/kg
- solubility [5]: 13.6 µg/mL (≈ 28.1 µM)
SMILES: COc1cc(N2CCN(C)CC2)ccc1Nc1nc(Oc2cccc3c2C(=O)CC3)c2cc[nH]c2n1

- IC50 (Focal adhesion kinase 1 [1]): 10.9 nM
SMILES: COc1cc(C(=O)NC2CC2)ccc1Nc1nc(Oc2cccc3c2C(=O)CC3)c2cc[nH]c2n1

- IC50 (Focal adhesion kinase 1 [1]): 20.6 nM
SMILES: O=C1NCc2cc(Nc3nc(Oc4cccc5c4C(=O)CC5)c4cc[nH]c4n3)ccc21

- IC50 (Focal adhesion kinase 1 [1]): 4.8 nM
- remaining at 2 h [2]: 15.7%
- half-life [3]: 0.775 h
- CLint scaled [4]: 18.7 mL/min/kg
SMILES: CN1CCN(c2ccc(Nc3nc(Oc4cccc5c4C(=O)CC5)c4cc[nH]c4n3)cc2Cl)CC1

Continued, molecule first:

SMILES: COc1cc(N2CCOCC2)ccc1Nc1nc(Oc2cccc3c2C(=O)CC3)c2ccsc2n1
- IC50 (Focal adhesion kinase 1 [1]): > 1000 nM

SMILES: COc1cc(N2CCOCC2)ccc1Nc1nc(Oc2cccc3c2C(=O)CC3)c2sccc2n1
- IC50 (Focal adhesion kinase 1 [1]): 113 nM

SMILES: COc1cc(N2CCN(C)CC2)ccc1Nc1nc(Oc2cccc3c2C(=O)CC3)c2ccccc2n1
- IC50 (Focal adhesion kinase 1 [1]): 231 nM

SMILES: O=C1CCc2cccc(Oc3nc(Nc4ccc(N5CCOCC5)cc4)nc4cc[nH]c34)c21
- IC50 (Focal adhesion kinase 1 [1]): > 1000 nM

SMILES: COc1cc(N2CCN(C)CC2)ccc1Nc1nc(Oc2cccc3c2C(=O)CC3)c2[nH]ccc2n1
- IC50 (Focal adhesion kinase 1 [1]): > 1000 nM

SMILES: Cc1ccc(Oc2nc(Nc3ccc(N4CCC(N5CCN(C)CC5)CC4)cc3)nc3[nH]ccc23)c2c1CCC2=O
- IC50 (Focal adhesion kinase 1 [1]): 2.47 nM
- remaining at 2 h [2]: 41.5%
- half-life [3]: 1.57 h
- CLint scaled [4]: 93 mL/min/kg
- solubility [5]: 38 µg/mL (≈ 68.9 µM)

SMILES: COc1cc(N2CCC(N3CCN(C)CC3)CC2)ccc1Nc1nc(Oc2cccc3c2C(=O)CC3)c2ccccc2n1
- IC50 (Focal adhesion kinase 1 [1]): 246 nM

SMILES: Cc1cc(Nc2nc(Oc3cccc4c3C(=O)CC4)c3cc[nH]c3n2)n(C(C)C)n1
- IC50 (Focal adhesion kinase 1 [1]): 206 nM

SMILES: CN1CCN(C2CCN(c3ccc(Nc4nc(Oc5cccc6c5C(=O)CC6)c5cc[nH]c5n4)cc3)CC2)CC1
- IC50 (Focal adhesion kinase 1 [1]): 2.91 nM
- remaining at 2 h [2]: 42.2%
- half-life [3]: 1.55 h
- CLint scaled [4]: 93 mL/min/kg
- solubility [5]: 39.4 µg/mL (≈ 73.3 µM)

SMILES: COc1cc(N2CCC(N3CCN(C)CC3)CC2)ccc1Nc1nc(Oc2cccc3c2C(=O)CC3)c2[nH]ccc2n1
- IC50 (Focal adhesion kinase 1 [1]): > 1000 nM

SMILES: Cc1cc(Nc2nc(Oc3cccc4c3C(=O)CC4)c3cc[nH]c3n2)ccc1N1CCN(C2COC2)CC1
- IC50 (Focal adhesion kinase 1 [1]): 6.32 nM

SMILES: CN1CCN(c2ccc(Nc3nc(Oc4cccc5c4C(=O)CC5)c4sccc4n3)cc2)CC1
- IC50 (Focal adhesion kinase 1 [1]): 110 nM

SMILES: COc1cc(N2CCN(C)CC2)ccc1Nc1nc(-n2cnc3ccccc32)c2cc[nH]c2n1
- IC50 (Focal adhesion kinase 1 [1]): 36.8 nM

SMILES: O=C1CCc2cccc(Oc3nc(Nc4ccc(N5CCOCC5)cc4)nc4ccsc34)c21
- IC50 (Focal adhesion kinase 1 [1]): 245 nM

SMILES: COc1cc(N2CCN(C)CC2)ccc1Nc1nc(Oc2cccc3c2C(=O)CC3)c2sccc2n1
- IC50 (Focal adhesion kinase 1 [1]): 41.4 nM
